The subject of data set [1] is Respiratory syncytial virus recombinant with luciferase (RSV-Luc5) in NHBE cells. The data set can be described thus: NHBE RSV-Luc5 384-well Assay (RSV FLUC NHBE 384 V2, Ex. W). It counts as cell-based. Particulars: human respiratory syncytial virus, 72 h, read-out: EC50 RSV FLUC NHBE 384 V2 (per Ex. W). An excerpt: Example W: NHBE RSV-Luc5 384-well Assay (EC50 RSVFLUC NHBE-384)
Normal Human Bronchial Epithelial (NHBE) cells were purchased from Lonza (Walkersville, MD Cat #CC2540) and maintained in BEGM Bronchial Epithelial Cell Growth Medium BulletKit (Lonza CC-3170).
Cells were thawed, expanded, and were used for experiments at passage 2. Respiratory syncytial virus recombinant with luciferase (RSV-Luc5) (≥1×10^7 Infectious Units/mL (IU/mL) determined by TCID50) was purchased from Microbiologics (Saint Cloud, MN). Viral replication was determined in NHBE cells in the following manner.
(§1) Compounds are prepared in 100% DMSO in 384-well polypropylene plates (Greiner, Monroe, NC, Cat #784201) with 8 compounds per plate in grouped replicates of 4 at 10 serially diluted concentrations (1:3). The serially diluted compounds were transferred to low dead volume Echo plates (Labcyte, Sunnyvale, CA, Cat #LP-0200).
The test compounds were spotted to 384-well assay plates (Greiner, Monroe, NC, Cat#781091) at 200 nL per well using an Echo acoustic dispenser (Labcyte, Sunnyvale, CA). NHBE cells were harvested and suspended in BEGM Bronchial Epithelial Cell Growth Medium BulletKit and seeded to the pre-spotted assay plates at 5,000 cells per well in 30 μL. RSV-Luc5 virus was diluted in BEGM Bronchial Epithelial Cell Growth Medium BulletKit at 500,000 Infectious Units (IU) per mL and 10 μL per well was added to the assay plates containing cells and compounds, for an MOI of 1. The assay plates were incubated for 3 days at 37° C. and 5% CO2. At the end of incubation, One-Glo reagent (Promega, Madison, WI, Cat #E6120) was prepared. The assay plates and One-Glo reagent were equilibrated to room temperature for at least 15 minutes. 40 μL per well of One-Glo reagent was added and the plates were incubated at room temperature for 15 minutes before reading the luminescence signal on an EnVision multimode plate reader (Perkin Elmer, Waltham, MA). Remdesivir was used as positive control and DMSO was used as negative control. Values were normalized to the positive and negative controls (as 0% and 100% replication, respectively) and data was fitted using non-linear regression analysis by Gilead's dose response tool. The EC50 value for each compound was defined as the concentration reducing the viral replication by 50%.

Data set [2] can be described thus: GI S9 stability (Ex. Z), rat intestinal S9. Conditions: pooled intestinal S9 fractions; rat intestinal S9, 1.0 mg/mL protein, 2 μM substrate, pH 7.4; read-out: GIS9 Rat T½ (per Ex. Z). It counts as in vitro ADME. The procedure:
(§2) Example Z: GI S9 stability data:
(§3) Stock solutions of test compounds in dimethyl sulfoxide (DMSO) having a final concentration of 10 mM were prepared and used in all experiments. Sekisui XenoTech (Kansas City, KS) provided pooled intestinal S9 fractions. All other chemicals were purchased from Sigma-Aldrich (St. Louis, MO) or VWR (West Chester, PA). Internal Standard/Quench (IS/Q) used to stop reactions was 100 nM labetalol in (by volume) methanol (10%) and acetonitrile (90%).
(§4) Stability in Intestinal S9 Fractions: Duplicate aliquots of test compound or positive control substrate were added to S9 stock diluted with phosphate buffered saline (137 mM NaCl, 2.7 mM KCl, 10 mM phosphate buffer), pH 7.4, to obtain a protein concentration of 1.0 mg/mL. The metabolic reactions were initiated by the addition of the substrates to the S9 reaction mixture to a final concentration of 2 μM. At 0, 10, 20, 30, 60 and 120 min, 25 μL aliquots of the reaction mixture were transferred to plates containing 225 μl of IS/Q solution. After quenching, the plates were centrifuged at 3000×g for 30 minutes. 150 μL aliquots of each supernatant were dried down then reconstituted with 300 μL water. Aliquots (10 μL) of the prepared samples were analyzed on a Thermo Q-Exactive mass spectrometer as described below.
(§5) Liquid Chromatography—Mass Spectrometry: Quantification of test compounds and control substrate was performed by analyte/internal standard peak area ratio (PAR) values measured on a Thermo Q-Exactive mass spectrometer coupled to a Dionex UltiMate 3000 HPLC with a Leap Technologies HTC PAL autosampler. The column used for analysis was a Waters Acquity BEH C18 (1.7 μm particle size, 2.1×50 mm). Mobile phase A consisted of 0.1% (v/v) formic acid in water. Mobile phase B consisted of 0.1% (v/v) formic acid in acetonitrile. Elution of analytes was achieved by a series of linear gradients varying the proportions of A and B. The mass spectrometer was calibrated on a weekly basis and mass tolerance of 5 ppm was used.
(§6) Metabolic stabilities in S9 fractions were determined by measuring the rates of disappearance of test compound and positive control substrate.
(§7) Data (% of substrate remaining) were plotted on a semi-log scale and fitted using an exponential decline model:
(§8) Where Ct—% of substrate remaining at time=t; C0—% of substrate remaining at time=0; t—time; T½—half-life The Half-life (T½) is determined by the following equation: […]
(§9) Assuming a first-order reaction, the slope (k) is extrapolated from the aforementioned plotted data.

A short description of data set [3]: GI S9 stability (Ex. Z), dog intestinal S9. It counts as in vitro ADME. Particulars: pooled intestinal S9 fractions; dog intestinal S9, 1.0 mg/mL protein, 2 μM substrate, pH 7.4; read-out: GIS9 DOG T½ (per Ex. Z). Here is the method: as §2, §3, §4, §5, §6, §7, §8, §9
A short description of data set [4]: GI S9 stability (Ex. Z), cyno intestinal S9. It counts as in vitro ADME. Particulars: cynomolgus monkey, pooled intestinal S9 fractions; cyno intestinal S9, 1.0 mg/mL protein, 2 μM substrate, pH 7.4; read-out: GIS9 Cyno T½ (per Ex. Z). Here is the method: as §2, §3, §4, §5, §6, §7, §8, §9
In data set [5] the test system is Respiratory syncytial virus recombinant with luciferase (RSV-Luc5) in HEp-2 cells. The data set is described as follows: HEp-2 RSV-Luc5 384-well Assay (EC50 RSVFLUC Hep2-384 v2, Ex. V). Particulars: human respiratory syncytial virus, HEp-2, 72 h, read-out: EC50 RSV FLuc Hep-2 384 V2 (per Ex. V). Format: cell-based.
From the text: Example V: HEp-2 RSV-Luc5 384-well Assay (EC50 RSVFLUC Hep2-384 v2)
HEp-2 cell line was purchased from ATCC (Manassas, VA Cat #CCL-23) and maintained in Dulbecco's […] (DMEM) (Corning, New York, NY, Cat #15-018CM) supplemented with 10% fetal bovine serum (FBS) (Hyclone, Logan, UT, Cat #SH30071-03) and 1× Penicillin-Streptonycin-L-Glutamine (Corning, New York, NY, Cat #30-009-CI). Cells were passaged 2 times per week to maintain sub-confluent densities and were used for experiments at passage 5-20. Respiratory syncytial virus recombinant with luciferase (RSV-Luc5) (≥1 ×107 TCID50/ml) was purchased from Microbiologics (Saint Cloud, MN). Viral replication was determined in HEp-2 cells in the following manner.
as §1
The test compounds were spotted to 384-well assay plates (Greiner, Monroe, NC, Cat#781091) at 200 nL per well. HEp-2 cells were harvested and suspended in DMEM (supplemented with 10% FBS and 1× Penicillin-Streptonycin-L-Glutamine) and seeded to the pre-spotted assay plates at 4,000 cells per well in 30 μL. RSV-Luc5 viruses were diluted in DMEM (supplemented with 10% FBS and 1× Penicillin-Streptomycin-L-Glutamine) at 200,000 Infectious Units (IU) per mL and 10 μL per well was added to the assay plates containing cells and compounds, for an MOI=0.5. The assay plates were incubated for 3 days at 37° C. and 5% CO2. At the end of incubation, One-Glo reagent (Promega, Madison, WI, Cat #E6120) was prepared. The assay plates and One-Glo reagent were equilibrated to room temperature for at least 15 minutes. 40 μL per well of One-Glo reagent was added and the plates were incubated at room temp for 15 minutes before reading the luminescence signal on an EnVision multimode plate reader (Perkin Elmer, Waltham, MA). Remdesivir was used as positive control and DMSO was used as negative control. Values were normalized to the positive and negative controls (as 0% and 100% replication, respectively) and data was fitted using non-linear regression analysis by Gilead's dose response tool. The EC50 value for each compound was then determined as the concentration reducing the viral replication by 50%.

As to `CC(C)C(=O)Nc1ncnn2c([C@@H]3O[C@](C#N)(COC(=O)C(C)C)[C@@H](OC(=O)C(C)C)[C@H]3OC(=O)C(C)C)ccc12` [Compound 21, (2R,3S,4S,5S)-2-cyano-5-(4-isobutyramidopyrrolo[2,1-f][1,2,4]triazin-7-yl)-2-((isobutyryloxy)methyl)tetrahydrofuran-3,4-diyl bis(2-methylpropanoate)], the concentration for a half-maximal effect (EC50) (as a rule, the concentration needed to bring the measured effect to its halfway point) in data set [1] came to 9.08 µM. Also, the figures for the half-life at 2 μM in data set [2], in data set [3] and in data set [4] were 1 min, 5 min and 4 min, respectively.

For the molecule `CC(=O)Nc1ncnn2c([C@@H]3O[C@](C#N)(COC(C)=O)[C@@H](O)[C@H]3O)ccc12` [Compound 31], the 50% effective concentration (EC50) in data set [1] and in data set [5] was 50 µM throughout.

For the origin of these results see patent US20240199676A1, “ANTIVIRAL COMPOUNDS AND METHODS OF MAKING AND USING THE SAME” (Gilead Sciences, Inc., priority 2022, published 2024).
